Numbers after ± are expanded uncertainties.
Assays:
[1] = Crystal; DTA
[2] = Molar enthalpy of transition or fusion; conditions: Crystal; DSC

Normal melting temperature [1]: 125.71 ± 0.5 °C | Molar enthalpy of transition or fusion [2]: 4.48 ± 0.136 kcal/mol
SMILES: O=C1Cc2ccccc2N1 [indolin-2-one]

— the NIST ThermoML archive (doi:10.1016/j.jct.2010.04.006)
